≈ marks a conversion by molar mass, not a printed value. Where two headings read alike, the source gives them in different places.
How the values were obtained:
S. aureus = assay: microbe, parasite or virus in culture; format: cell-based, Staphylococcus aureus
Procedure: (§1) The minimum inhibitory concentrations of (MIC) of CEME, CEMA and melittin were determined for a number of different bacteria (Table 2). Briefly, cells were grown overnight at 37° C. in LB-S (Luria broth without any salt supplement) and diluted one in 10,000 in the same medium to give concentrations of about 10^4 to 10^5 CFU/ml. The broth dilutions were set up in a 96 well microtiter plate by putting 200 μl of LB-S containing the initial concentration of antibiotic or compound in column 1 and 100 μl of the same medium in columns 2-12. The compounds were diluted by taking 100 μl of broth from column 1 and mixing it with column 2, resulting in a one in two dilution. This was continued to column 10. Finally, 10 μl of bacteria were pipetted into columns 1-11, and the plates incubated overnight at 37° C. The next day the plates were scored for growth in the wells, and the MIC determined.

E. coli = assay: microbe, parasite or virus in culture; format: cell-based, Escherichia coli
Procedure: as §1
(§2) Bacteria included the Bort strain of E. coli (Bortolussi, et al., Inf. Immun., 25:293, 1979) that was originally derived from a case of neonatal meningitis, and which is therefore considered a relevant pathogenic strain to study, and the 0111:B4 strain of E. coli (kindly provided by Dr. D. Morrison) which is a standard source of endotoxin. (Kelly, et al., Inf. Immun., 59:4491, 1991). In addition, P. aeruginosa PA01 strain H103, P. aeruginosa M2, P. aeruginosa K799, Eschericha coli UB 1005, Enterobacter cloacae 218S, Salmonella typhimurium MS7953s, Klebsiella pneumoniae ATCC 13883, Xanthomonas maltophilia ATCC 13637, and Acinetobacter calcoacetious 8193 were employed. LPS was obtained from E. coli Bort by the technique of Westphal and Jann, (Westphal, et al., Acad. Press, Inc. NY., 5:83) and from P. aeruginosa H103 by the method of Darveau and Hancock, (Darveau, et al., J. Bacteriol, 155:831, […]). E. coli 0111:B4 LPS was purchased from Sigma.

[1] = MIC of common antibiotics in the presence of sub-MIC levels of cationic peptides; format: cell-based
Description: The ability of the cationic peptides to work synergistically was examined by determining the MIC values for some commonly used antibiotics in the presence of sub-MIC levels of cationic peptides (Table 4). […] This may be due to the high membrane permeabilizing activity of CEMA (see below). However, the peptides did lower the MIC of polymyxin B, possibly due to the fact that they are all taken up by the same pathway and are therefore aiding each other's uptake. Of interest is the influence that melittin has on the MIC of polymyxin B, given the weak membrane permeabilizing activity of melittin.

S. typhimurium = assay: microbe, parasite or virus in culture; format: cell-based, Salmonella typhimurium
Procedure: as §1, §2

P. aeruginosa = assay: microbe, parasite or virus in culture; format: cell-based, Pseudomonas aeruginosa
Procedure: as §1, §2

E. cloacae = assay: microbe, parasite or virus in culture; format: cell-based, Enterobacter cloacae
Procedure: as §1, §2

P. AERUGINOSA H309 = assay: microbe, parasite or virus in culture; format: cell-based, Pseudomonas aeruginosa
Procedure: as §1, with “Briefly,” for “The minimum inhibitory concentrations of (MIC) of CEME, CEMA and melittin were determined for a number of different bacteria (Table 2). Briefly,”

P. aeruginosa H103 LPS = assay: Dansyl polymyxin (DPx) displacement from purified LPS; format: binding, Pseudomonas aeruginosa; details: 2.5 μM DPx, 3 μg/ml LPS, 5 mM HEPES pH 7.2, average of at least three trials
Procedure: In this assay, DPx was incubated with LPS to saturate the binding sites and then, while polycationic compounds are titrated into the reaction, displacement of the DPx was monitored by the decrease in fluorescence (FIG. 9). P. aeruginosa LPS was isolated as previously described (Darveau, et al., J of Bacteriology, 155:831, 1983) Dansyl polymyxin was synthesized as described by Schindler, et al., B. Antimicrobial Agents and Chemo, 8:95, 1975.
The method of Moore, et al., (Antimicrobial Agents and Chemo., 29:496, 1987), was used to test how much DPx was needed to saturate the binding sties on LPS. Briefly, 5 μl samples of 100 μM DPx were titrated sequentially into 1 ml of 3 μg/ml of LPS until a maximum fluorescence was reached. The fluorescence was measured in a Perkin-Elmer 650-10S fluorescence spectrophotometer with an excitation wavelength of 340 nm and an emission wavelength of 485 nm using slit widths of 5 nm. […] For the binding inhibition assays (Moore, et al., Antimicrobial Agents and Chemo., 29:496, 1987), 2.5 μM DPx was added to 3 μg/ml of H103 LPS in 5 mM HEPES pH 7.2. The test compounds were added 5 μl at a time and the decrease in fluorescence due to displacement of the DPx from the LPS was recorded.
When the data was plotted as a double reciprocal plot (FIG. 10), the X-intercept provided a value that is equal to -1/I50.

[2] = tested on: P. aeruginosa H309 Whole Cells; assay: DPx binding inhibition using whole cells; design: species or system Pseudomonas aeruginosa; details: DPx at 90-100% binding saturation, average of at least three trials
Procedure: For DPx binding inhibition assays using whole cells instead of purified LPS, H309 cells were prepared the same way as for the lysozyme lysis assay. The assay consisted of 10 μl of cells at an OD600 of 0.5, 990 μl of 5 mM HEPES pH 7.2 and 5 mM KCN, and the concentration of DPx that gave 90-100% binding saturation. […] Compounds were titrated in, and I50 values were determined as described above.

CC(C)(O/N=C(\C(=O)N[C@@H]1C(=O)N2C(C(=O)[O-])=C(C[n+]3ccccc3)CS[C@H]12)c1csc(N)n1)C(=O)O [Ceftazidime, ceftazidime]
MIC (S. aureus; Staphylococcus aureus, strain RN4220, Methicillin sensitive): 8 mg/L (≈ 14.6 µM)
MIC (S. aureus; Staphylococcus aureus, strain SAP0017, Methicillin resistant): > 16 mg/L
MIC (E. coli; Escherichia coli, SC9251 / SC9252, strain SC9251, Parent of SC9252): 0.12 mg/L (≈ 0.22 µM)
MIC (E. coli; Escherichia coli, SC9252, strain SC9252, Polymyxin resistant): 0.5 mg/L (≈ 0.915 µM)
MIC (E. coli; Escherichia coli, strain DC2, Polymyxin sensitive): 0.06 mg/L (≈ 0.11 µM)
MIC (E. coli; Escherichia coli, strain UB1005, Parent of DC2 (Table 2)): 0.5 mg/L (≈ 0.915 µM)
MIC in the presence of ([1]; CEMA 0.7 μg/ml): 2 μg/m1
MIC in the presence of ([1]; CEMA 1.4 μg/ml): 2 μg/m1
MIC in the presence of ([1]; CEME 0.6 μg/ml): 4 μg/m1
MIC in the presence of ([1]; CEME 1.2 μg/ml): 4 μg/m1
MIC in the presence of ([1]; Melittin 2 μg/ml): 4 μg/m1
MIC in the presence of ([1]; Melittin 4 μg/ml): 2 μg/m1
MIC in the presence of ([1]; No peptide): 4 μg/m1
MIC (S. typhimurium; Salmonella enterica, TYPHIMURIUM): 0.25 mg/L (≈ 0.457 µM)
MIC (S. typhimurium; strain C590, Defensin sensitive): 0.25 mg/L (≈ 0.457 µM)
MIC (P. aeruginosa; Pseudomonas aeruginosa, strain H187, Parent of H188, read-out: MIC): 2 mg/L (≈ 3.66 µM)
MIC (P. aeruginosa; Pseudomonas aeruginosa, strain H188, Antibiotic sensitive, read-out: MIC): 0.03 mg/L (≈ 0.0549 µM)
MIC (P. aeruginosa; Pseudomonas aeruginosa, strain H309, Wildtype, read-out: MIC): 1 mg/L (≈ 1.83 µM)
MIC (E. cloacae; Enterobacter cloacae, strain 218R1, β-lactam resistant): > 16 mg/L
MIC (E. cloacae; Enterobacter cloacae, strain 218S, Parent of 218R1 (Table 2)): 0.5 mg/L (≈ 0.915 µM)
MIC (P. AERUGINOSA H309; Pseudomonas aeruginosa, +5 mM Mg^++, read-out: MIC): 2 mg/L (≈ 3.66 µM)
MIC (P. AERUGINOSA H309; Pseudomonas aeruginosa, +80 mM Na^+, read-out: MIC): 2 mg/L (≈ 3.66 µM)
MIC (P. AERUGINOSA H309; Pseudomonas aeruginosa, No addition, read-out: MIC): 1 mg/L (≈ 1.83 µM)

C[C@@H](O)[C@H]1C(=O)N2C(C(=O)O)=C(SCCN=CN)C[C@H]12 [Imipenem, imipenem]
MIC in the presence of ([1]; CEMA 0.7 μg/ml): 4 μg/m1
MIC in the presence of ([1]; CEMA 1.4 μg/ml): 2 μg/m1
MIC in the presence of ([1]; CEME 0.6 μg/ml): 4 μg/m1
MIC in the presence of ([1]; CEME 1.2 μg/ml): 4 μg/m1
MIC in the presence of ([1]; Melittin 2 μg/ml): 4 μg/m1
MIC in the presence of ([1]; Melittin 4 μg/ml): 4 μg/m1
MIC in the presence of ([1]; No peptide): 4 μg/m1

CN(C)[C@@H]1C(O)=C(C(N)=O)C(=O)[C@@]2(O)C(O)=C3C(=O)c4c(O)cccc4[C@@](C)(O)[C@H]3C[C@@H]12 [Tetracycline, tetracycline]
MIC in the presence of ([1]; CEMA 0.7 μg/ml): 8 μg/m1
MIC in the presence of ([1]; CEMA 1.4 μg/ml): 4 μg/m1
MIC in the presence of ([1]; CEME 0.6 μg/ml): 8 μg/m1
MIC in the presence of ([1]; CEME 1.2 μg/ml): 8 μg/m1
MIC in the presence of ([1]; Melittin 2 μg/ml): 8 μg/m1
MIC in the presence of ([1]; Melittin 4 μg/ml): 8 μg/m1
MIC in the presence of ([1]; No peptide): 8 μg/m1

gentamicin
MIC (S. aureus; strain RN4220, Methicillin sensitive): 2 mg/L
MIC (S. aureus; strain SAP0017, Methicillin resistant): > 8 mg/L
MIC (E. coli; strain UB1005, Parent of DC2 (Table 2)): 1 mg/L
I50, Value in μg/ml (P. aeruginosa H103 LPS): 18.16 ± 6.77 µg/mL
IC50 (P. aeruginosa H103 LPS; read-out: I50, Value in μM): 19.2 ± 7.18 µM
MIC (P. aeruginosa; strain H187, Parent of H188): 1 mg/L
MIC (P. aeruginosa; strain H188, Antibiotic sensitive): 0.25 mg/L
MIC (P. aeruginosa; strain H309, Wildtype): 1 mg/L
MIC (E. cloacae; strain 218S, Parent of 218R1 (Table 2)): 0.5 mg/L
I50, Value in μg/ml [2]: 36.92 ± 9.12 µg/mL
MIC (P. AERUGINOSA H309; +5 mM Mg^++): 4 mg/L
MIC (P. AERUGINOSA H309; +80 mM Na^+): 1 mg/L
MIC (P. AERUGINOSA H309; No addition): 1 mg/L

— patent publication US5688767A, “Treatment of endotoxin-associated disorders with cationic peptides” (priority 1996, dated 1997)
